# Reference: patent publication US11505558B1, “Antiviral heterocyclic compounds” (Enanta Pharmaceuticals, Inc., priority 2019, dated 2022)
# Test system: genotype A, "Long" strain RSV
# Experiment: RSV-A assay (CPE, ATPlite readout in Hep-2 cells)
# Assay type: cell-based
# Settings: human respiratory syncytial virus, HEp-2, Hep-2 cells, genotype A "Long" strain RSV, MOI 0.1; read-out: Human RSV-A (“Long” strain) EC50
# Text: Hep-2 cells, (originally derived from tumors grown in irradiated-cortisonised weanling rats that had been injected with epidermoid carcinoma tissue from a person's larynx, but later found to be indistinguishable from HeLa cells by PCR DNA analysis), were used for the culturing of genotype A, “Long” strain RSV. Flasks were inoculated with RSV and viral stocks were collected once cytopathic effect (CPE) was greater than […]. Viral stocks in […] sucrose media were snap frozen using liquid nitrogen to increase viral stability. Viral stock titers were quantified by tissue culture infectious dose 50% (TCID50) using 8,000 cells per well and 3-fold viral dilutions across a 96-well plate, cultured for 4 days. Viral stock titers were also quantified by a plaque forming unit assay, as described elsewhere.
# Following extensive parameter testing, the final assay is run as follows: Hep-2 cells are seeded into the inner 60 wells of a 96-well plate at 8,000 cells per well in a volume of 50 μL using Growth Media (DMEM without phenol red, 1% L-Glut, 1% Penn/Strep, 1% nonessential amino acids, 10% heat-inactivated FBS). 2-fold serial dilutions of control and test compounds are added to the wells in duplicate in a total volume of 25 μL. Viral stock is then added to the wells at a multiplicity of infection (MOI) of 0.1 in a volume of 25 μL, bringing the total volume of each well to 100 μL. The MOI is calculated using the PFU/mL, or TCID50 if unavailable. Each 96-well plate has a control column of 6 wells with cells and virus but no compound (negative control, max CPE), a column with cells but no compound or virus (positive control, minimum CPE), and a column with no cells or virus or compound (background plate/reagent control). The control wells with cells but no virus are given an additional 25 μL of growth media containing an equal quantity of sucrose as those wells receiving the viral stock in order to keep consistent in media and volume conditions. The outer wells of the plate are filled with 125 μL of moat media (DMEM, 1% Penn/Strep) to act as a thermal and evaporative moat around the test wells. Following a 5-day incubation period, the plates are read using ATPlite (50 uL added per well), which quantifies the amount of ATP (a measure of cell health) present in each well. Assay plates are read using the Envision luminometer. […] EC50 ranges are as follows: A<0.2 μM; B>0.2 μM.
row,SMILES,EC50 [nM]
1,C[C@]1(C(N)=O)COc2c1cc([C@@](O)(CNC(=O)c1ccc(-c3cnccn3)c(OC3CC3)c1)C(F)(F)F)nc2-c1ccc(F)cc1 [Example 166],< 200
2,Cc1cnc(-c2ccc(C(=O)NC[C@](O)(c3cc4c(c(-c5ccc(F)cc5)n3)OC[C@]4(C)C(N)=O)C(F)(F)F)cc2OC2CC2)cn1 [Example 167],> 200
3,C[C@]1(C(N)=O)COc2c1cc([C@@](O)(CNC(=O)c1ccc(-c3ccncn3)c(OC3CC3)c1)C(F)(F)F)nc2-c1ccc(F)cc1 [Example 170],> 200
4,C[C@]1(C(N)=O)COc2c1cc([C@@](O)(CNC(=O)c1ccc(-c3ncco3)c(OC3CC3)c1)C(F)(F)F)nc2-c1ccc(F)cc1 [Example 171],< 200
5,Cc1noc(C)c1-c1ccc(C(=O)NC[C@](O)(c2cc3c(c(-c4ccc(F)cc4)n2)OC[C@]3(C)C(N)=O)C(F)(F)F)cc1OC1CC1 [Example 172],> 200
6,C[C@]1(C(N)=O)COc2c1cc([C@@](O)(CNC(=O)c1ccc(-c3nccs3)c(OC3CC3)c1)C(F)(F)F)nc2-c1ccc(F)cc1 [Example 173],> 200
7,C[C@]1(C(N)=O)COc2c1cc([C@@](O)(CNC(=O)c1ccc(-c3cscn3)c(OC3CC3)c1)C(F)(F)F)nc2-c1ccc(F)cc1 [Example 174],> 200
8,C[C@]1(C(N)=O)COc2c1cc([C@@](O)(CNC(=O)c1ccc(-c3cncs3)c(OC3CC3)c1)C(F)(F)F)nc2-c1ccc(F)cc1 [Example 175],< 200
9,COc1cc(C(=O)NC[C@](O)(c2cc3c(c(-c4ccc(F)cc4)n2)OC[C@]3(C)C(N)=O)C(F)(F)F)ccc1-c1cnoc1 [Example 184],< 200
10,COc1cc(C(=O)NC[C@](O)(c2cc3c(c(-c4ccc(F)cc4)n2)OC[C@]3(C)C(N)=O)C(F)(F)F)ccc1-c1conc1C [Example 186],< 200
11,COc1cc(C(=O)NC[C@](O)(c2cc3c(c(-c4ccc(F)cc4)n2)OC[C@]3(C)C(N)=O)C(F)(F)F)ccc1OCCN1CCN(C)CC1 [Example 190],> 200
12,COc1cc(C(=O)NC[C@](O)(c2cc3c(c(-c4ccc(F)cc4)n2)OC[C@]3(C)C(N)=O)C(F)(F)F)ccc1-c1nncs1 [Example 201],< 200
13,C[C@@H](O)COc1ccc(C(=O)NC[C@](O)(c2cc3c(c(-c4ccc(F)cc4)n2)OC[C@]3(C)C(N)=O)C(F)(F)F)cc1-c1cncnc1 [Example 203],> 200
14,C[C@]1(C(N)=O)COc2c1cc([C@@](O)(CNC(=O)c1cc(O)c3nc(C(F)(F)F)ccc3c1)C(F)(F)F)nc2-c1ccc(F)cc1 [Example 227],> 200
15,C[C@]1(C(N)=O)COc2c1cc([C@@](O)(CNC(=O)c1cc(O)c3ncccc3c1)C(F)(F)F)nc2-c1ccc(F)cc1 [Example 229],> 200
16,C[C@]1(C(N)=O)COc2c1cc([C@@](O)(CNC(=O)c1ccc3cccnc3c1)C(F)(F)F)nc2-c1ccc(F)cc1 [Example 233],> 200
17,C[C@]1(C(N)=O)COc2c1cc([C@@](O)(CNC(=O)c1ccc3nccnc3c1)C(F)(F)F)nc2-c1ccc(F)cc1 [Example 234],> 200
18,C[C@]1(C(N)=O)COc2c1cc([C@@](O)(CNC(=O)c1cc3ccccc3cn1)C(F)(F)F)nc2-c1ccc(F)cc1 [Example 236],> 200
19,C[C@]1(C(N)=O)COc2c1cc([C@@](O)(CNC(=O)c1ccc3ncccc3n1)C(F)(F)F)nc2-c1ccc(F)cc1 [Example 238],> 200
20,C[C@]1(C(N)=O)COc2c1cc([C@@](O)(CNC(=O)c1ccc3ncccc3c1Cl)C(F)(F)F)nc2-c1ccc(F)cc1 [Example 240],> 200
21,C[C@]1(C(N)=O)COc2c1cc([C@@](O)(CNC(=O)c1ccc3ccccc3n1)C(F)(F)F)nc2-c1ccc(F)cc1 [Example 243],> 200

# The remaining lines, values ahead:
row,EC50 [nM],SMILES
1,> 200,C[C@]1(C(N)=O)COc2c1cc([C@@](O)(CNC(=O)c1ccc(-c3cnc(C4CC4)nc3)c(OC3CC3)c1)C(F)(F)F)nc2-c1ccc(F)cc1 [Example 165]
2,< 200,C[C@]1(C(N)=O)COc2c1cc([C@@](O)(CNC(=O)c1ccc(-c3ccnnc3)c(OC3CC3)c1)C(F)(F)F)nc2-c1ccc(F)cc1 [Example 168]
3,> 200,C[C@]1(C(N)=O)COc2c1cc([C@@](O)(CNC(=O)c1ccc(-c3ccc(=O)[nH]c3)c(OC3CC3)c1)C(F)(F)F)nc2-c1ccc(F)cc1 [Example 169]
4,> 200,Cc1ncc(-c2ccc(C(=O)NC[C@](O)(c3cc4c(c(-c5ccc(F)cc5)n3)OC[C@]4(C)C(N)=O)C(F)(F)F)cc2OC2CC2)s1 [Example 176]
5,> 200,COc1ncc(-c2ccc(C(=O)NC[C@](O)(c3cc4c(c(-c5ccc(F)cc5)n3)OC[C@]4(C)C(N)=O)C(F)(F)F)cc2OC2CC2)s1 [Example 177]
6,> 200,C[C@]1(C(N)=O)COc2c1cc([C@@](O)(CNC(=O)c1ccc(C3=CCOCC3)c(OC3CC3)c1)C(F)(F)F)nc2-c1ccc(F)cc1 [Example 178]
7,< 200,Cc1nocc1-c1ccc(C(=O)NC[C@](O)(c2cc3c(c(-c4ccc(F)cc4)n2)OC[C@]3(C)C(N)=O)C(F)(F)F)cc1OC1CC1 [Example 181]
8,< 200,COc1cc(C(=O)NC[C@](O)(c2cc3c(c(-c4ccc(F)cc4)n2)OC[C@]3(C)C(N)=O)C(F)(F)F)ccc1-c1ncc(C)o1 [Example 182]
9,< 200,COc1cc(C(=O)NC[C@](O)(c2cc3c(c(-c4ccc(F)cc4)n2)OC[C@]3(C)C(N)=O)C(F)(F)F)ccc1-c1cnoc1C [Example 185]
10,< 200,COc1cc(C(=O)NC[C@](O)(c2cc3c(c(-c4ccc(F)cc4)n2)OC[C@]3(C)C(N)=O)C(F)(F)F)ccc1-c1cnco1 [Example 187]
11,> 200,COc1cc(C(=O)NC[C@](O)(c2cc3c(c(-c4ccc(F)cc4)n2)OC[C@]3(C)C(N)=O)C(F)(F)F)ccc1OCCN1CCOCC1 [Example 188]
12,> 200,COc1cc(C(=O)NC[C@](O)(c2cc3c(c(-c4ccc(F)cc4)n2)OC[C@]3(C)C(N)=O)C(F)(F)F)ccc1OCCN1CCCCC1 [Example 189]
13,> 200,COc1cc(C(=O)NC[C@](O)(c2cc3c(c(-c4ccc(F)cc4)n2)OC[C@]3(C)C(N)=O)C(F)(F)F)ccc1-c1coc(C)n1 [Example 197]
14,< 200,C[C@]1(C(N)=O)COc2c1cc([C@@](O)(CNC(=O)c1ccc(-c3cocn3)c(OC3CC3)c1)C(F)(F)F)nc2-c1ccc(F)cc1 [Example 198]
15,< 200,COc1cc(C(=O)NC[C@](O)(c2cc3c(c(-c4ccc(F)cc4)n2)OC[C@]3(C)C(N)=O)C(F)(F)F)ccc1-c1cocn1 [Example 199]
16,< 200,COc1cc(C(=O)NC[C@](O)(c2cc3c(c(-c4ccc(F)cc4)n2)OC[C@]3(C)C(N)=O)C(F)(F)F)ccc1-c1nnco1 [Example 200]
17,> 200,C[C@@H](O)COc1ccc(C(=O)NC[C@](O)(c2cc3c(c(-c4ccc(F)cc4)n2)OC[C@]3(C)C(N)=O)C(F)(F)F)cc1-c1cccnc1 [Example 204]
18,< 200,C[C@]1(C(N)=O)COc2c1cc([C@@](O)(CNC(=O)c1cc(Cl)c3ncccc3c1)C(F)(F)F)nc2-c1ccc(F)c(Cl)c1 [Example 220]
19,> 200,COc1cc(C(=O)NC[C@](O)(c2cc3c(c(-c4ccc(F)cc4)n2)OC[C@]3(C)C(N)=O)C(F)(F)F)cc2ccc(C(F)(F)F)nc12 [Example 224]
20,> 200,C[C@]1(C(N)=O)COc2c1cc([C@@](O)(CNC(=O)c1cc(OC3CC3)c3nc(C(F)(F)F)ccc3c1)C(F)(F)F)nc2-c1ccc(F)cc1 [Example 225]
21,< 200,Cc1ccc2cc(C(=O)NC[C@](O)(c3cc4c(c(-c5ccc(F)cc5)n3)OC[C@]4(C)C(N)=O)C(F)(F)F)cc(O)c2n1 [Example 226]
22,> 200,Cc1nnc2ccc(C(=O)NC[C@](O)(c3cc4c(c(-c5ccc(F)cc5)n3)OC[C@]4(C)C(N)=O)C(F)(F)F)cc2c1C [Example 231]
23,> 200,C[C@]1(C(N)=O)COc2c1cc([C@@](O)(CNC(=O)c1cnc3ccccc3n1)C(F)(F)F)nc2-c1ccc(F)cc1 [Example 237]
24,< 200,C[C@]1(C(N)=O)COc2c1cc([C@@](O)(CNC(=O)c1cnc3ncccc3c1)C(F)(F)F)nc2-c1ccc(F)cc1 [Example 239]
25,> 200,C[C@]1(C(N)=O)COc2c1cc([C@@](O)(CNC(=O)c1cc3cccnc3cc1Cl)C(F)(F)F)nc2-c1ccc(F)cc1 [Example 241]
26,> 200,C[C@]1(C(N)=O)COc2c1cc([C@@](O)(CNC(=O)c1cnc3cccnc3c1)C(F)(F)F)nc2-c1ccc(F)cc1 [Example 242]
27,> 200,C[C@]1(C(N)=O)COc2c1cc([C@@](O)(CNC(=O)c1cnc3cnccc3c1)C(F)(F)F)nc2-c1ccc(F)cc1 [Example 244]
28,< 200,C[C@]1(C(N)=O)COc2c1cc([C@@](O)(CNC(=O)c1ccc3c(Cl)nccc3c1)C(F)(F)F)nc2-c1ccc(F)cc1 [Example 247]
